The compounds below were run against T1, Aromatase (Homo sapiens, UniProt P11511).
T1 sequence (P11511 whole entry): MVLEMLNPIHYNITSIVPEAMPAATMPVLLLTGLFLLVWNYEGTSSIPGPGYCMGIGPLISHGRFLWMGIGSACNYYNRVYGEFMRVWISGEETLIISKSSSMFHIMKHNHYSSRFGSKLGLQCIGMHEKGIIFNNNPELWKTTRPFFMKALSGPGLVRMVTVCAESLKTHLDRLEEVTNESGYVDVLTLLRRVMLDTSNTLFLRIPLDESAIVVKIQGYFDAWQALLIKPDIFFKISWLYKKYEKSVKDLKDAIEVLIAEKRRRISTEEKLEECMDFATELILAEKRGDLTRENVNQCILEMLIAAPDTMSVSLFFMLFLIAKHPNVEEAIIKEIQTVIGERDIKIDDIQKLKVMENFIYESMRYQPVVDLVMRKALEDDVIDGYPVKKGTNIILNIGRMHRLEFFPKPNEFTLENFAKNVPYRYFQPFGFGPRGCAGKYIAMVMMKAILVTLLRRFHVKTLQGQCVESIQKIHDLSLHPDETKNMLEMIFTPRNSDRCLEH

Structure (SMILES)	IC50 [µM]
C[C@]12CCCCC1=CC(=O)[C@@H]1[C@@H]2CC[C@]2(C)C(=O)CC[C@@H]12	2.3
COc1cc2c(cc1O)CC[C@@H]1[C@@H]2CC[C@]2(C)[C@@H](O)CC[C@@H]12 [2-METHOXYESTRADIOL]	20
C[C@]12CCC(=O)C=C1CC[C@@H]1[C@@H]2CC[C@]2(C)C(=O)CC[C@@H]12 [ANDROSTENEDIONE]	1
C[C@]12CC[C@@H]3c4ccc(O)cc4CC[C@H]3[C@@H]1CCC2=O [ESTRONE]	26
C#CC[C@]12CCC(=O)C=C1CC[C@@H]1[C@@H]2CC[C@]2(C)C(=O)CC[C@@H]12 [PLOMESTANE]	1

Target: T1, Aromatase
Remark: another data set of the same source

Structure (SMILES)	IC50 [µM]
CO[C@@H]1C[C@@H]2[C@H](CC[C@]3(C)C(=O)CC[C@@H]23)[C@@]2(C)C=CC(=O)C=C12	0.619
CCO[C@@H]1C[C@@H]2[C@H](CC[C@]3(C)C(=O)CC[C@@H]23)[C@@]2(C)C=CC(=O)C=C12	0.56
CO[C@@H]1C[C@@]2(C)C(=CC1=O)CC[C@@H]1[C@@H]2CC[C@]2(C)C(=O)CC[C@@H]12	11.8
C[C@]12CCC(=O)C=C1[C@@H](OCc1ccccc1)C[C@@H]1[C@@H]2CC[C@]2(C)C(=O)CC[C@@H]12	2.5
C[C@]12C=CC(=O)C=C1C[C@@H](CCc1ccc([N+](=O)[O-])cc1)[C@@H]1[C@@H]2CC[C@]2(C)C(=O)CC[C@@H]12	0.0149
CSC1=C2CC[C@@H]3[C@H](CC[C@]4(C)C(=O)CC[C@@H]34)[C@@]2(C)CCC1=O	4.4
C[C@]12C[C@@H](O)C(=O)C=C1CC[C@@H]1[C@@H]2CC[C@]2(C)C(=O)CC[C@@H]12	15.3
CCCCCC(=O)O[C@H]1C[C@@H]2[C@H](CC[C@]3(C)C(=O)CC[C@@H]23)[C@@]2(C)CCC(=O)C=C12	0.0879
C[C@]12C[C@@H](Br)C(=O)C=C1CC[C@@H]1[C@@H]2CC[C@]2(C)C(=O)CC[C@@H]12	2.2
C[C@]12C=CC(=O)C=C1C=C(CCc1ccccc1)[C@@H]1[C@@H]2CC[C@]2(C)C(=O)CC[C@@H]12	0.172
C[C@]12C=CC(=O)C=C1C[C@@H](CCc1ccc(N)cc1)[C@@H]1[C@@H]2CC[C@]2(C)C(=O)CC[C@@H]12	0.0187
CCO[C@@H]1C[C@@]2(C)C(=CC1=O)CC[C@@H]1[C@@H]2CC[C@]2(C)C(=O)CC[C@@H]12	11.8
C[C@]12C[C@@H](Cl)C(=O)C=C1CC[C@@H]1[C@@H]2CC[C@]2(C)C(=O)CC[C@@H]12	1.4
C[C@]12CCC(=O)C(O)=C1CC[C@@H]1C2=CC[C@]2(C)C(=O)CC[C@@H]12	0.35
C[C@]12C=CC(=O)C=C1[C@@H](OCc1ccccc1)C[C@@H]1[C@@H]2CC[C@]2(C)C(=O)CC[C@@H]12	1.9
C[C@]12C=CC(=O)C=C1[C@H](OCc1ccccc1)C[C@@H]1[C@@H]2CC[C@]2(C)C(=O)CC[C@@H]12	0.15
COCSC1=C2CC[C@@H]3[C@H](CC[C@]4(C)C(=O)CC[C@@H]34)[C@@]2(C)CCC1=O	10
CC(=O)O[C@H]1C[C@@H]2[C@H](CC[C@]3(C)C(=O)CC[C@@H]23)[C@@]2(C)C=CC(=O)C=C12	1.1
C[C@]12CCC(=O)C=C1[C@@H](Oc1ccccc1)C[C@@H]1[C@@H]2CC[C@]2(C)C(=O)CC[C@@H]12	0.1
C[C@@H]1C[C@@]2(C=O)C(=CC1=O)CC[C@@H]1[C@@H]2CC[C@]2(C)C(=O)CC[C@@H]12	12

Structure (SMILES)	IC50 [µM]
C[C@]12CCC(=O)C(SCCl)=C1CC[C@@H]1C2=CC[C@]2(C)C(=O)CC[C@@H]12	0.859
CCCO[C@H]1C[C@@H]2[C@H](CC[C@]3(C)C(=O)CC[C@@H]23)[C@@]2(C)CCC(=O)C=C12	1.3
CO[C@@H]1C[C@@H]2[C@H](CC[C@]3(C)C(=O)CC[C@@H]23)[C@@]2(C)CCC(=O)C=C12	0.17
CCCCC(=O)O[C@H]1C[C@@H]2[C@H](CC[C@]3(C)C(=O)CC[C@@H]23)[C@@]2(C)CCC(=O)C=C12	0.14
CC1(C)C[C@@]2(C=O)C(=CC1=O)CC[C@@H]1[C@@H]2CC[C@]2(C)C(=O)CC[C@@H]12	0.6
CCO[C@@H]1C[C@@H]2[C@H](CC[C@]3(C)C(=O)CC[C@@H]23)[C@@]2(C)CCC(=O)C=C12	0.5
C[C@]12C=CC(=O)C=C1[C@H](Oc1ccccc1)C[C@@H]1[C@@H]2CC[C@]2(C)C(=O)CC[C@@H]12	16
C[C@]12CCC(=O)C(S)=C1CC[C@@H]1C2=CC[C@]2(C)C(=O)CC[C@@H]12	3.8
CCO[C@H]1C[C@@H]2[C@H](CC[C@]3(C)C(=O)CC[C@@H]23)[C@@]2(C)CCC(=O)C=C12	1.4
CCCCCCCC(=O)O[C@H]1C[C@@H]2[C@H](CC[C@]3(C)C(=O)CC[C@@H]23)[C@@]2(C)CCC(=O)C=C12	0.15
CCCC(=O)O[C@H]1C[C@@H]2[C@H](CC[C@]3(C)C(=O)CC[C@@H]23)[C@@]2(C)CCC(=O)C=C12	0.2
COCOC1=C2CC[C@@H]3[C@H](CC[C@]4(C)C(=O)CC[C@@H]34)[C@@]2(C)CCC1=O	4.4
CC(=O)O[C@H]1C[C@@H]2[C@H](CC[C@]3(C)C(=O)CC[C@@H]23)[C@@]2(C)CCC(=O)C=C12	4
CO[C@H]1C[C@@H]2[C@H](CC[C@]3(C)C(=O)CC[C@@H]23)[C@@]2(C)CCC(=O)C=C12	0.54
CCCCC(=O)O[C@@H]1C[C@@H]2[C@H](CC[C@]3(C)C(=O)CC[C@@H]23)[C@@]2(C)CCC(=O)C=C12	1.5
CCCCCC(=O)O[C@@H]1C[C@@H]2[C@H](CC[C@]3(C)C(=O)CC[C@@H]23)[C@@]2(C)CCC(=O)C=C12	0.53
CCCCO[C@H]1C[C@@H]2[C@H](CC[C@]3(C)C(=O)CC[C@@H]23)[C@@]2(C)C=CC(=O)C=C12	0.661
CCO[C@H]1C[C@@H]2[C@H](CC[C@]3(C)C(=O)CC[C@@H]23)[C@@]2(C)C=CC(=O)C=C12	1.5
C[C@]12CCC(=O)C(S)=C1CC[C@@H]1[C@@H]2CC[C@]2(C)C(=O)CC[C@@H]12	3.5
CCCCCCCC(=O)O[C@@H]1C[C@@H]2[C@H](CC[C@]3(C)C(=O)CC[C@@H]23)[C@@]2(C)CCC(=O)C=C12	1.5

Structure (SMILES)	IC50 [µM]
CCC(=O)O[C@H]1C[C@@H]2[C@H](CC[C@]3(C)C(=O)CC[C@@H]23)[C@@]2(C)CCC(=O)C=C12	0.21
CC1(C)C[C@@]2(CO)C(=CC1=O)CC[C@@H]1[C@@H]2CC[C@]2(C)C(=O)CC[C@@H]12	5.11
CCCO[C@@H]1C[C@@H]2[C@H](CC[C@]3(C)C(=O)CC[C@@H]23)[C@@]2(C)CCC(=O)C=C12	0.55
C[C@]12CCC(=O)C=C1[C@H](OCc1ccccc1)C[C@@H]1[C@@H]2CC[C@]2(C)C(=O)CC[C@@H]12	0.0849
C[C@]12CCC(=O)C=C1[C@H](Oc1ccccc1)C[C@@H]1[C@@H]2CC[C@]2(C)C(=O)CC[C@@H]12	23
CC(=O)O[C@@H]1C[C@@H]2[C@H](CC[C@]3(C)C(=O)CC[C@@H]23)[C@@]2(C)CCC(=O)C=C12	20
CSCSC1=C2CC[C@@H]3C(=CC[C@]4(C)C(=O)CC[C@@H]34)[C@@]2(C)CCC1=O	1.2
CCCCO[C@@H]1C[C@@H]2[C@H](CC[C@]3(C)C(=O)CC[C@@H]23)[C@@]2(C)C=CC(=O)C=C12	0.46
CC(=O)O[C@@H]1C[C@@H]2[C@H](CC[C@]3(C)C(=O)CC[C@@H]23)[C@@]2(C)C=CC(=O)C=C12	5
CCCC(=O)O[C@@H]1C[C@@H]2[C@H](CC[C@]3(C)C(=O)CC[C@@H]23)[C@@]2(C)CCC(=O)C=C12	2.7
CCCCCC(=O)O[C@H]1C[C@@H]2[C@H](CC[C@]3(C)C(=O)CC[C@@H]23)[C@@]2(C)C=CC(=O)C=C12	0.21
C[C@@H]1C[C@@]2(CO)C(=CC1=O)CC[C@@H]1[C@@H]2CC[C@]2(C)C(=O)CC[C@@H]12	11
CCCCCCC(=O)O[C@@H]1C[C@@H]2[C@H](CC[C@]3(C)C(=O)CC[C@@H]23)[C@@]2(C)CCC(=O)C=C12	1.5
CCC(=O)O[C@@H]1C[C@@H]2[C@H](CC[C@]3(C)C(=O)CC[C@@H]23)[C@@]2(C)CCC(=O)C=C12	2.2
C[C@]12C=CC(=O)C=C1[C@@H](Oc1ccccc1)C[C@@H]1[C@@H]2CC[C@]2(C)C(=O)CC[C@@H]12	0.53
CO[C@H]1C[C@@H]2[C@H](CC[C@]3(C)C(=O)CC[C@@H]23)[C@@]2(C)C=CC(=O)C=C12	0.44
CCCCCCC(=O)O[C@H]1C[C@@H]2[C@H](CC[C@]3(C)C(=O)CC[C@@H]23)[C@@]2(C)CCC(=O)C=C12	0.0951
CCCCO[C@H]1C[C@@H]2[C@H](CC[C@]3(C)C(=O)CC[C@@H]23)[C@@]2(C)CCC(=O)C=C12	0.78
CCCCCC(=O)O[C@@H]1C[C@@H]2[C@H](CC[C@]3(C)C(=O)CC[C@@H]23)[C@@]2(C)C=CC(=O)C=C12	1.8
CCCCO[C@@H]1C[C@@H]2[C@H](CC[C@]3(C)C(=O)CC[C@@H]23)[C@@]2(C)CCC(=O)C=C12	0.42
